Structures can show the parent of a compound that is named as a salt.
| melting point [°C] | SMILES |
| --- | --- |
| 231 to 235 | O=C1c2ccccc2CN1C1CCN(CC=C(c2ccccc2)c2ccccc2)CC1 (as salt: hydrochloride) [Example 11, 2-[1-(3,3-Diphenyl-2-propenyl)-4-piperidinyl]-2,3-dihydro-1H-isoindol-1-one, monohydrochloride] |
| 229 to 231 | O=C1c2ccccc2CN1C1CCN(CCCc2ccccc2)CC1 (as salt: hydrochloride) [Example 14, 2,3-Dihydro-2-[1-(3-phenylpropyl)-4-piperidinyl]-1H-isoindol-1-one, monohydrochloride] |
| 263 to 264 | O=C(NC1CCN(CCc2ccccc2)CC1)C(c1ccccc1)c1ccccc1 (as salt: hydrochloride) [Example 30, α-Phenyl-N-[1-(phenylethyl)-4-piperidinyl]-benzeneacetamide, monohydrochloride] |
| 127 to 134 | O=C1c2ccccc2CN1C1CCN(C/C=C/CC(c2ccccc2)c2ccccc2)CC1 (as salt: hydrochloride) [Example 33, 2-[1-(5,5-Diphenyl-2-pentenyl)-4-piperidinyl]-2,3-dihydro-1H-isoindol-1-one, monohydrochloride] |
| 199 to 202 | O=C1c2ccccc2CN1C1CCN(CCCc2ccccc2Oc2ccccc2)CC1 (as salt: hydrochloride) [Example 34, 2,3-Dihydro-2-[1-[3-(2-phenoxyphenyl)propyl]-4-piperidinyl]-1H-isoindol-1-one, monohydrochloride] |
| 165 to 169 | O=C1c2ccccc2CN1C1CCN(C(c2ccccc2)c2ccccc2)CC1 (as salt: hydrochloride) [Example 35, 2,3-Dihydro-2-[1-(diphenylmethyl)-4-piperidinyl]-1H-isoindol-1-one, monohydrochloride] |
| 174 to 177 | O=C1c2ccccc2CN1C1CCN(C/C=C\CC(c2ccccc2)c2ccccc2)CC1 (as salt: hydrochloride) [Example 36, (Z)-2,3-Dihydro-2-[1-(5,5-diphenyl-2-pentenyl)-4-piperidinyl]-1H-isoindol-1-one, monohydrochloride] |
| 170 to 172 | COc1ccccc1C(=O)NC1CCN(CCC(c2ccccc2)c2ccccc2)CC1 (as salt: hydrochloride) [Example 38, N-[1-(3,3-Diphenylpropyl)-4-piperidinyl]-2-methoxybenzamide, monohydrochloride] |
| 109 to 116 | O=C(NC1CCN(CCC(c2ccccc2)c2ccccc2)CC1)c1ccccn1 (as salt: hydrochloride) [Example 40, N-[1-(3,3-Diphenylpropyl)-4-piperidinyl]-2-pyridineamide, monohydrochloride] |
| 102 to 105 | CC(=O)N(Cc1ccccc1)C1CCN(CCC(c2ccccc2)c2ccccc2)CC1 (as salt: hydrochloride) [Example 41, N-[1-(3,3-Diphenylpropyl)-4-piperidinyl]-N-(phenylmethyl)acetamide, monohydrochloride] |
| 115 to 120 | O=C(c1ccccc1)N(Cc1ccccc1)C1CCN(CCC(c2ccccc2)c2ccccc2)CC1 (as salt: hydrochloride) [Example 42, N-[1-(3,3-Diphenylpropyl)-4-piperidinyl]-N-(phenylmethyl)benzamide, monohydrochloride] |

The next lines start with the molecule.

| SMILES | melting point [°C] |
| --- | --- |
| O=C1c2ccccc2CN1C1CCN(Cc2ccccc2)CC1 (as salt: hydrochloride) [Example 13, 2,3-Dihydro-2-[1-(phenylmethyl)-4-piperidinyl]-1H-isoindol-1-one, monohydrochloride] | 271 to 274 |
| CCCCC(CCCC)CCN1CCC(N2Cc3ccccc3C2=O)CC1 (as salt: hydrochloride) [Example 17, 2-[1-(3-Butylheptyl)-4-piperidinyl]-2,3-dihydro-1H-isoindol-1-one, monohydrochloride] | 185 to 187 |
| O=C1c2ccccc2CN1C1CCN(C/C=C/c2ccccc2Oc2ccccc2)CC1 (as salt: hydrochloride) [Example 20, (E)-2,3-Dihydro-2-[1-[3-(2-phenoxyphenyl)-2-propenyl]-4-piperidinyl]-1H-isoindol-1-one, monohydrochloride] | 215 to 218 |
| COc1ccccc1CCCN1CCC(N2Cc3ccccc3C2=O)CC1 (as salt: hydrochloride) [Example 21, 2,3-Dihydro-2-[1-[3-(2-methoxyphenyl)propyl]-4-piperidinyl]-1H-isoindol-1-one, monohydrochloride] | 191 to 195 |
| O=C1CC(CN2CCN(c3ccccc3)CC2)Cc2ccccc21 (centres unmarked) (as salt: hydrochloride) [Example 23, 3,4-Dihydro-3-[(4-phenyl-1-piperazinyl)methyl]-1-(2H)-naphthalenone, monohydrochloride] | 243 to 246 |
| COc1ccccc1N1CCN(C(=O)C2CC(=O)c3ccccc3C2)CC1 (centres unmarked) (as salt: hydrochloride) [Example 25, 3,4-Dihydro-3-[[4-(2-methoxyphenyl)-1-piperazinyl]-carbonyl]-1(2H)-naphthalenone, monohydrochloride] | 197 to 199 |
| O=C1CC(CN2CCN(C(c3ccccc3)c3ccc(Cl)cc3)CC2)Cc2cc(F)ccc21 (centres unmarked) (as salt: hydrochloride) [Example 27, 3-[[4-[(4-Chlorophenyl)phenylmethyl]-1-piperazinyl]methyl]-6-fluoro-3,4-dihydro-1(2H)-naphthalenone, dihydrochloride] | 211 to 212 |
| COc1ccc(C(C(=O)NC2CCN(CCc3ccccc3)CC2)c2ccc(OC)cc2)cc1 (as salt: hydrochloride) [Example 29, 4-Methoxy-α-(4methoxyphenyl)-N-[1-(2-phenylethyl)-4-piperidinyl]benzeneacetamide, monohydrochloride] | 180 to 182 |
| O=C1c2ccc(Cl)cc2CN1C1CCN(Cc2ccccc2)CC1 (as salt: hydrochloride) [Example 31, 5-Chloro-2,3-dihydro-2-[1-(phenylmethyl)-4-piperidinyl]-1H-isoindol-1-one, monohydrochloride] | 269 to 271 |
| CCCCC(=CCN1CCC(N2Cc3ccccc3C2=O)CC1)CCCC (as salt: hydrochloride) [Example 32, 2-[1-(3-Butyl-2-heptenyl)-4-piperidinyl]-2,3-dihydro-1H-isoindol-1-one, monohydrochloride] | 147 to 152 |
| COc1ccccc1N1CCN(CC2CC(=O)c3ccc(F)cc3C2)CC1 (centres unmarked) [Example 22, 6-Fluoro-3,4-dihydro-3-[[4-(2-methoxyphenyl)-1-piperazinyl]-methyl]-1(2H)-naphthalenone] | 111 to 113 |
| O=C(Cc1c[nH]c2ccccc12)NC1CCN(Cc2ccccc2)CC1 [Example 28, N-[1-(Phenylmethyl)-4-piperidinyl]-1H-indole-3-acetamide] | 153 to 154 |
